Active and inactive are the calls of the source. The calls are words filed in the database; no cut-off is given here. A value given as a limit tells only on which side of the number the result lay.

This passage reports IC50, Activity and inhibition results from ChEMBL document CHEMBL4477208, “Discovery and Rational Design of Pteridin-7(8H)-one-Based Inhibitors Targeting FMS-like Tyrosine Kinase 3 (FLT3) and Its Mutants” (J Med Chem, 2016).

The subject of one test is WI-38. The test can be described thus: cells. Particulars: Homo sapiens, WI-38, 72 h.
Test [1] deals with MV4-11. The experiment in a line: cells. The settings on record: Homo sapiens, MV4-11, 72 h.
Description: Antiproliferative activity against human MV4-11 cells harboring FLT3-ITD mutant after 72 hrs by MTT assay
Test [2] concerns MV4-11. The experiment in a line: Cell cycle arrest in human MV4-11 cells at 1000 nM after 48 hrs by PI/RNase staining based FACS analysis. Format: functional. For orientation: In flow cytometry, cells or beads pass a laser one at a time.
For test [3], the system named is MV4-11. The test can be described thus: Induction of apoptosis in human MV4-11 cells at 1000 nM after 48 hrs by annexin V/propidium iodide staining based FACS analysis. In kind it is functional, cell-based.
The test system of a further test is K562. The experiment in a line: cells. The settings on record: Homo sapiens, K562, 72 h.
The target of test [4] is T1, Receptor-type tyrosine-protein kinase FLT3 (Homo sapiens, UniProt P36888).
T1 sequence (P36888 whole entry): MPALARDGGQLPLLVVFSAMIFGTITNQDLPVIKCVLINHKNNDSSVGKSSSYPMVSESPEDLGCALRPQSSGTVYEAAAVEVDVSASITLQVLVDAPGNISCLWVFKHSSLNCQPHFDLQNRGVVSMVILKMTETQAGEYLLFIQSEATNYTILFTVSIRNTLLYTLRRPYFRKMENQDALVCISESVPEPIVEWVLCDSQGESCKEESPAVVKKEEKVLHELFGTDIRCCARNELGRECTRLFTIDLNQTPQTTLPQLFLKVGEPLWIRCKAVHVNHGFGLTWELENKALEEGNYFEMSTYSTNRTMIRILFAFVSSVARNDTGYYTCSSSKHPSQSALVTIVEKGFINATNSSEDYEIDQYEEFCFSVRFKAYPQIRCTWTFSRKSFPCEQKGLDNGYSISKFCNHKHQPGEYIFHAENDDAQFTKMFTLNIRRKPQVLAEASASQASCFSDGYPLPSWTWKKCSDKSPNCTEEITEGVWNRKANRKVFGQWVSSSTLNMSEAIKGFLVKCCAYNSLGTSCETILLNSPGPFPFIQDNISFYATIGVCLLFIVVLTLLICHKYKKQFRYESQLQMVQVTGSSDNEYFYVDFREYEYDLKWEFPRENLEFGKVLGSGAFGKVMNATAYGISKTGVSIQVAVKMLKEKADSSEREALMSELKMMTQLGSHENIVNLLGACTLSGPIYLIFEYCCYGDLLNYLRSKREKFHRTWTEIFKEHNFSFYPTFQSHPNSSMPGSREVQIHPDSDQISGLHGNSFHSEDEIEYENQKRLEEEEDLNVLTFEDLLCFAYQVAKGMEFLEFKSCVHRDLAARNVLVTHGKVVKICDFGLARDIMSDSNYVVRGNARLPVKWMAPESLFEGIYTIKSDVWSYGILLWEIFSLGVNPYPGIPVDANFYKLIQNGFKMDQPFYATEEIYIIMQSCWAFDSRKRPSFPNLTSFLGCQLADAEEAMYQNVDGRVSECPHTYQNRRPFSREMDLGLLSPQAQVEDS
Description: Inhibition of human N-terminal GST-tagged FLT3 (564 to 993 residues) expressed in baculovirus expression system using peptide FAM-P2 as substrate incubated for 10 mins followed by substrate addition by mobility shift assay

Test [5] deals with Receptor-type tyrosine-protein kinase FLT3 (Homo sapiens) (UniProt P36888). The test can be described thus: Inhibition of FLT3 (unknown origin) at 10 uM.
The target is the same in test [6]. The test can be described thus: Inhibition of FLT3 (unknown origin) at 1 uM.

Description for K562: Antiproliferative activity against FLT3-deficient human K562 cells after 72 hrs by MTT assay
Description for WI-38: Antiproliferative activity against human WI38 cells after 72 hrs by SRB assay

`CN1CCN(c2ccc(Nc3ncc4ncc(=O)n(-c5ccc(N)cc5)c4n3)cc2)CC1`: the values for the concentration for half-maximal inhibition (IC50) in the test on WI-38, with MV4-11 [1] and in the test on K562 were > 10 µM, 297 nM and > 10 µM, respectively. For the same compound, the result with MV4-11 [2] and with MV4-11 [3] was Active.
For the compound `CN1CCN(c2ccc(Nc3ncc4ncc(=O)n(-c5ccc(CN)cc5)c4n3)cc2)CC1`, the IC50 in the test on WI-38 was > 10 µM; with MV4-11 [1], 326 nM; in the test on K562 it was 9.96 µM.
Take `C=CC(=O)Nc1cccc(-n2c(=O)cnc3cnc(Nc4ccc(OC)cc4)nc32)c1`: the 50% inhibitory concentration (IC50) in the test with WI-38 was 8.71 µM; in the test on MV4-11 [1], 2610 nM; in the test on K562, > 10 µM; in test [4], 1870 nM.
For `COc1ccc(Nc2ncc3ncc(=O)n(-c4ccc(N)cc4)c3n2)cc1Cl`, the results for the 50% inhibitory concentration (IC50) in the test with WI-38, in the test on MV4-11 [1] and in the test with K562 were > 10 µM, 1950 nM and > 10 µM, respectively.
`C=CC(=O)Nc1ccc(-n2c(=O)cnc3cnc(Nc4ccc(OC)cc4)nc32)cc1`: the IC50 in the test on WI-38 was > 10 µM; in the test with MV4-11 [1], 3810 nM; in the test with K562 it was > 10 µM; in test [4], 108 nM.
`C=CC(=O)Nc1cccc(-n2c(=O)cnc3cnc(Nc4ccc(CC(N)=O)cc4)nc32)c1`: the IC50 in the test on WI-38 was > 10 µM; in the test with MV4-11 [1], > 10000 nM; in the test on K562, > 10 µM.
As to `C=CC(=O)Nc1ccc(-n2c(=O)cnc3cnc(Nc4ccc(N5CCN(C)CC5)cc4OC)nc32)cc1`, the half-maximal inhibitory concentration (IC50) was > 10 µM in the test on WI-38, 814 nM in the test with MV4-11 [1], > 10 µM with K562 and 153 nM in test [4].
As for `COc1ccc(Nc2ncc3ncc(=O)n(-c4ccc(NC(C)=O)cc4)c3n2)cc1`, the half-maximal inhibitory concentration (IC50) in the test with WI-38 was > 10 µM; with MV4-11 [1], 3880 nM; in the test with K562 it was > 10 µM.
On to `CN1CCN(c2ccc(Nc3ncc4ncc(=O)n(-c5ccc(NS(C)(=O)=O)cc5)c4n3)cc2)CC1`, for which the IC50 in the test on WI-38 was > 10 µM; in the test on MV4-11 [1] it was 1150 nM; with K562 it was > 10 µM.
For the compound `CN1CCN(c2ccc(Nc3ncc4ncc(=O)n(-c5ccc(N6CCNCC6)cc5)c4n3)cc2)CC1`, the values for the IC50 in the test on WI-38, in the test on MV4-11 [1] and in the test with K562 were > 10 µM, 168 nM and > 10 µM, respectively.
In the case of `C=CC(=O)Nc1cccc(-n2c(=O)cnc3cnc(Nc4ccc(N5CCCCC5)cc4)nc32)c1`, the IC50 in the test with WI-38 was > 10 µM; in the test with MV4-11 [1], > 10000 nM; in the test with K562, > 10 µM; in test [4] it was 1750 nM.
Turning to `C=CC(=O)Nc1cccc(-n2c(=O)cnc3cnc(Nc4ccc(N5CCCC5)cc4)nc32)c1`, the IC50 in the test on WI-38 was > 10 µM; in the test with MV4-11 [1], > 10000 nM; in the test with K562, > 10 µM; in test [4] it was 1530 nM.
Consider `C=CC(=O)Nc1ccc(-n2c(=O)cnc3cnc(Nc4ccc(N5CCOCC5)cc4)nc32)cc1`, for which the half-inhibitory concentration (IC50) is > 10 µM in the test on WI-38, 3490 nM in the test with MV4-11 [1], > 10 µM with K562 and 173 nM in test [4].
For the compound `CN1CCN(c2ccc(Nc3ncc4ncc(=O)n(-c5ccc(N)cc5)c4n3)cc2F)CC1`, the concentration for half-maximal inhibition (IC50) with WI-38 is > 10 µM; in the test with MV4-11 [1], 1420 nM; in the test on K562 it was > 10 µM.
Take `C=CC(=O)Nc1ccc(-n2c(=O)cnc3cnc(Nc4ccc(N5CCN(C)CC5)cc4)nc32)cc1`: the IC50 is > 10 µM with WI-38, 835 nM in the test with MV4-11 [1], > 10 µM with K562 and 47 nM in test [4].
Consider `COc1ccc(Nc2ncc3ncc(=O)n(-c4ccc(N)cc4)c3n2)cc1`, for which the IC50 was > 10 µM in the test on WI-38, 6890 nM in the test on MV4-11 [1], > 10 µM with K562 and 29 nM in test [4].
Consider `COc1ccc(Nc2ncc3ncc(=O)n(-c4cccc(N)c4)c3n2)cc1`, for which the concentration for half-maximal inhibition (IC50) in the test on WI-38 was > 10 µM; in the test with MV4-11 [1], 3490 nM; with K562 it was > 10 µM; in test [4], 34 nM.
As to `CC(=O)Nc1ccc(-n2c(=O)cnc3cnc(Nc4ccc(N5CCN(C)CC5)cc4)nc32)cc1`, the IC50 with WI-38 is > 10 µM; in the test on MV4-11 [1], 415 nM; in the test on K562 it was > 10 µM.
Turning to `C=CC(=O)Nc1cccc(-n2c(=O)cnc3cnc(Nc4ccc(N5CCN(C)CC5)cc4)nc32)c1`, the half-maximal inhibitory concentration (IC50) was > 10 µM in the test on WI-38, 792 nM in the test with MV4-11 [1], > 10 µM in the test on K562 and 312 nM in test [4]. The values for the inhibition in test [5] and in test [6] were 99% and 82%, respectively.
For the compound `COc1ccc(Nc2ncc3ncc(=O)n(-c4ccc(N)cc4)c3n2)c(C)c1`, the half-inhibitory concentration (IC50) in the test on WI-38 is > 10 µM; with MV4-11 [1], 6040 nM; with K562 it was > 10 µM.
For `C=CC(=O)Nc1cccc(-n2c(=O)cnc3cnc(Nc4ccc(N5CCN(C)CC5)cc4OC)nc32)c1`, the 50% inhibitory concentration (IC50) in the test with WI-38 was 8.24 µM; in the test with MV4-11 [1] it was 2890 nM; with K562, > 10 µM; in test [4] it was 1320 nM.
Taken in the same sequence, the figures for `C=CC(=O)Nc1cccc(-n2c(=O)cnc3cnc(Nc4ccc(NC(C)=O)cc4)nc32)c1` were > 10 µM, 7380 nM, > 10 µM and 5450 nM.
Taken in the same sequence, the figures for `C=CC(=O)Nc1cccc(-n2c(=O)cnc3cnc(Nc4ccccc4)nc32)c1` were > 10 µM, 5510 nM, > 10 µM and 2920 nM.
Taken in the same sequence, the figures for `C=CC(=O)Nc1ccc(-n2c(=O)cnc3cnc(Nc4ccccc4)nc32)cc1` were > 10 µM, > 10000 nM, > 10 µM and 165 nM.
Consider `C=CC(=O)Nc1cccc(-n2c(=O)cnc3cnc(Nc4ccc(Cl)cc4)nc32)c1`, for which the IC50 in the test on WI-38 was > 10 µM; in the test on MV4-11 [1], 4040 nM; with K562 it was > 10 µM; in test [4] it was 3590 nM.
`C=CC(=O)Nc1ccc(-n2c(=O)cnc3cnc(Nc4ccc(Cl)cc4)nc32)cc1`: the IC50 in the test on WI-38 was > 10 µM; with MV4-11 [1] it was > 10000 nM; in the test with K562 it was > 10 µM; in test [4], 384 nM.
For the compound `COc1ccc(Nc2ncc3ncc(=O)n(-c4ccc(NS(C)(=O)=O)cc4)c3n2)cc1`, the IC50 in the test on WI-38 is > 10 µM; in the test on MV4-11 [1] it was 2940 nM; in the test with K562, > 10 µM.
For `C=CC(=O)Nc1cccc(-n2c(=O)cnc3cnc(Nc4ccc(N5CCOCC5)cc4)nc32)c1`, the IC50 was > 10 µM with WI-38, > 10000 nM in the test with MV4-11 [1], > 10 µM with K562 and 1140 nM in test [4].
In the case of `COc1cc(Nc2ncc3ncc(=O)n(-c4ccc(N)cc4)c3n2)ccc1N1CCN(C)CC1`, the IC50 was > 10 µM with WI-38, 93 nM in the test with MV4-11 [1] and > 10 µM in the test with K562.
Consider `C=CC(=O)Nc1cccc(-n2c(=O)cnc3cnc(Nc4ccc(N(CC)CC)cc4)nc32)c1`, for which the IC50 with WI-38 was > 10 µM; in the test on MV4-11 [1], 5560 nM; in the test on K562 it was > 10 µM; in test [4], 1060 nM.
On to `COc1ccc(Nc2ncc3ncc(=O)n(-c4ccc(NC(=O)/C=C/CN(C)C)cc4)c3n2)cc1`, for which the half-maximal inhibitory concentration (IC50) in the test on WI-38 is > 10 µM; in the test with MV4-11 [1], 2170 nM; in the test with K562, > 10 µM; in test [4], 184 nM.
For the compound `CN1CCN(c2ccc(Nc3ncc4ncc(=O)n(-c5ccc(N)cc5)c4n3)cc2Cl)CC1`, the values for the half-maximal inhibitory concentration (IC50) in the test with WI-38, in the test with MV4-11 [1] and in the test with K562 were 3.49 µM, 98 nM and > 10 µM, respectively.
Taken in the same sequence, the figures for `COc1cc2c(N3CCN(C(=O)Nc4ccc(OC(C)C)cc4)CC3)ncnc2cc1OCCCN1CCCCC1` [TANDUTINIB] were > 10 µM, 302 nM and > 10 µM.
The corresponding values for `CN1CCN(c2ccc(Nc3ncc4ncc(=O)n(-c5cccc(N)c5)c4n3)cc2)CC1` are > 10 µM, 383 nM and > 10 µM.
Taken in the same sequence, the figures for `COc1ccc(Nc2ncc3ncc(=O)n(-c4cccc(NC(=O)/C=C/CN(C)C)c4)c3n2)cc1` were > 10 µM, 2720 nM and > 10 µM.

By IC50 is commonly meant the midpoint of a concentration-inhibition curve. A higher IC50 goes with lower potency. As usually defined, the inhibition is the percentage by which the read-out fell short of the control.
